Where two headings read alike, the source gives them in different places.
Tests used:
Type in all cases: biochemical
MSK1 = MSK1 (Homo sapiens, UniProt O75582); experiment: Kinase screen: MSK1 assay
Description: (§1) Generally, the same procedure was used for all assays. Since the total assay volume was 25.5 microliters, 0.5 microliters of inhibitors at 51× assay concentration were added to the plates before any other addition.
(§2) The basic procedure was to add 0.5 microliters inhibitor/control in DMSO to plate. Fifteen microliters of enzyme/substrate/buffer mix were added and incubated for 5 min. Ten microliters MgATP at the relevant concentration were added and incubated for 30 min. The assay was stopped by adding 5 microliters of 3% orthophosphoric acid. The assay was transferred to a p81 filter plate and read in a scintillation counter of 30 sec/well. Note that this assay procedure was not followed for MKK1, which instead involved a two-step assay, and PKC alpha, which required the addition of lipid vesicles.
MSK1 assay: MSK1 (5-20 mU diluted in 20 mM MOPS pH 7.5, 1 mM EDTA, 0.01% Brij35, 0.1% b-mercaptoethanol, 1 mg/ml BSA) was assayed against a modified Crosstide peptide […] (SEQ ID NO: 4) in a final volume of 25.5 μl containing 8 mM MOPS pH7.0, 0.2 mM EDTA, 30 μM substrate peptide, 10 mM magnesium acetate and 0.02 mM [33P-g-ATP] (50-1000 cpm/pmole) and incubated for 30 min at room temperature Assays were stopped by addition of 5 μl of 0.5 M (3%) orthophosphoric acid and then harvested onto P81 Unifilter plates with a wash buffer of 50 mM orthophosphoric acid.

CAMK1 = CAMK1 (Homo sapiens, UniProt Q14012); experiment: Kinase screen: CAMK-1 assay
Description: as §1, §2
CAMK-1 assay: 5-20 mU of CAMK-1 (diluted in 50 mM Tris (pH 7.5), 0.1 mM EGTA, 1 mg/ml BSA, 0.1%, b-Mercaptoethanol) was assayed against substrate peptide ([…]) (SEQ ID NO: 22) in a final volume of 25.5 μl containing 50 mM Tris (pH 7.5), 0.1 mM EGTA, 0.5 mM CaCl2, 0.3 μM calmodulin, 0.1%, b-Mercaptoethanol, 300 μM substrate peptide, 10 mM magnesium acetate and 0.05 mM [33P-g-ATP] (500-1000 cpm/pmole) and incubated for 30 mins at room temperature. Assays were stopped by addition of 5 μl of 0.5M (3%) orthophosphoric acid. Assays were harvested onto P81 Unifilter plates using a wash buffer of 50 mM orthophosphoric acid.

SmMLCK = SmMLCK (Homo sapiens, UniProt Q15746); experiment: Kinase screen: smMLCK assay
Chain of SmMLCK (Q15746 923-1914): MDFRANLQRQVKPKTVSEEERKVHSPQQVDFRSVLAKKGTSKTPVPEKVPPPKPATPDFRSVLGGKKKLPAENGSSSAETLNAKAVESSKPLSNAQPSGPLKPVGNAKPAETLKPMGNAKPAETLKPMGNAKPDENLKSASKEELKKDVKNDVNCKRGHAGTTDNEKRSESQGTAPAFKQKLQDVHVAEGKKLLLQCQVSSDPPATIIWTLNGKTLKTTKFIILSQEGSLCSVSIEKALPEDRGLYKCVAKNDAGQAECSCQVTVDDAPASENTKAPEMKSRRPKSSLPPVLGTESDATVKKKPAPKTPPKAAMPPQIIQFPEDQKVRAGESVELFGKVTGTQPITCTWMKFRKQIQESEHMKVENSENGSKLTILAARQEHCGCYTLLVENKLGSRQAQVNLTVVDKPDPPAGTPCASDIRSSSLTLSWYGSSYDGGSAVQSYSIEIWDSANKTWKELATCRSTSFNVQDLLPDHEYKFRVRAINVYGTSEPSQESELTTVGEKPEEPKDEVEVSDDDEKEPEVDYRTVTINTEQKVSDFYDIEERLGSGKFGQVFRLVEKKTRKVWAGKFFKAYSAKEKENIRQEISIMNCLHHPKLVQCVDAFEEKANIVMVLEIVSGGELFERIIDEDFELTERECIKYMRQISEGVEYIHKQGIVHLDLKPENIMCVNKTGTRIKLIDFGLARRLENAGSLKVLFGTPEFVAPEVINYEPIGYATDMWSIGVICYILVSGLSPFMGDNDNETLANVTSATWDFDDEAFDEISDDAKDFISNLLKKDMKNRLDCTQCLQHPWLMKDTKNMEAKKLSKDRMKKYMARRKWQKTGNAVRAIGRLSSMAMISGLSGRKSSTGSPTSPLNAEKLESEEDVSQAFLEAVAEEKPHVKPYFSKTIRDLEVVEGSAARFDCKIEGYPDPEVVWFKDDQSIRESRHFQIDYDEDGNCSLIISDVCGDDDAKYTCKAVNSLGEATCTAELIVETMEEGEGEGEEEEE
Description: as §1, §2
(500-1000 cpm/pmole) and incubated for 30 mins at room temperature. Assays were stopped by addition of 5 μl of 0.5M (3%) orthophosphoric acid. Assays were harvested onto P81 Unifilter plates using a wash buffer of 50 mM orthophosphoric acid.

CHK1 = biological target: T1, CHK1 (Homo sapiens, UniProt O14757); experiment: Kinase screen: CHK1 assay
T1 sequence (O14757 1-476): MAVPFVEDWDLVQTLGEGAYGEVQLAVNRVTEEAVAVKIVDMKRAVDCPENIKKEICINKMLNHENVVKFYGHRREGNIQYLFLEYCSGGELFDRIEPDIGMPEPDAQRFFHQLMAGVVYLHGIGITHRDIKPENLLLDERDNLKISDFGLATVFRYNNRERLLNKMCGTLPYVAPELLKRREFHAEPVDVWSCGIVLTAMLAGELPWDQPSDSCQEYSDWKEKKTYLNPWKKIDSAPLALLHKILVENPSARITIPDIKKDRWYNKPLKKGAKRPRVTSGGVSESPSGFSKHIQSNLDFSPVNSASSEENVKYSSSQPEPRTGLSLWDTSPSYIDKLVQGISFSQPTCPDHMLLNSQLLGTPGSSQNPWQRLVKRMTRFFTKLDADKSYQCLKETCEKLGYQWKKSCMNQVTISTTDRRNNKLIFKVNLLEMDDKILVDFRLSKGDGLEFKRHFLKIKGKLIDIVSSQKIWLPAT
Description: as §1, §2
CHK1 assay: CHK1 (5-20 mU diluted in 20 mM MOPS pH 7.5, 1 mM EDTA, 0.1% b-mercaptoethanol, 0.01% Brij-35, 5% glycerol, 1 mg/ml BSA) was assayed against CHKtide substrate peptide ([…]) (SEQ ID NO: 12) in a final volume of 25.5 μl containing 8 mM MOPS pH 7.0, 0.2 mM EDTA, 200 μM CHKtide, 10 mM magnesium acetate and 0.02 mM [33P-g-ATP] (50-1000 cpm/pmole) and incubated for 30 min at room temperature Assays were stopped by addition of 5 μl of 0.5 M (3%) orthophosphoric acid and then harvested onto P81 Unifilter plates with a wash buffer of 50 mM orthophosphoric acid.

PAK4 = PAK4 (Homo sapiens, UniProt O96013); experiment: Kinase screen: PAK4 assay
Chain of PAK4 (O96013 whole entry, species assumed): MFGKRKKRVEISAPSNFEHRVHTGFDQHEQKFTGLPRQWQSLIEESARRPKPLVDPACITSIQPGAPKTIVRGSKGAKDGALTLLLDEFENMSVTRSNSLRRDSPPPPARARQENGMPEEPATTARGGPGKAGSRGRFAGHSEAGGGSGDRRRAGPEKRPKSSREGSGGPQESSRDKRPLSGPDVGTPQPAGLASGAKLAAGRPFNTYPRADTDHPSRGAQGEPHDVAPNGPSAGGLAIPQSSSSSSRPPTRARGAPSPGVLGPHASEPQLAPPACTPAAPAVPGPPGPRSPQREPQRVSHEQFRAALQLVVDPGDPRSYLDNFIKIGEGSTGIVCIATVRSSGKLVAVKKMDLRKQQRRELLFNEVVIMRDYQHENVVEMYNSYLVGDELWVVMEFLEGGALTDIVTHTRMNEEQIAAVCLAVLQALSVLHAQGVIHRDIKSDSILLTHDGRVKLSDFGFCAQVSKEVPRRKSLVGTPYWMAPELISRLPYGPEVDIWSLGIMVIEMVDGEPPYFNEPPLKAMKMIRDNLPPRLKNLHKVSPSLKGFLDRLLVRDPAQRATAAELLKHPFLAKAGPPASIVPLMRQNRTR
Description: as §1, §2
(§3) PAK4 assay: PAK4 (5-20 mU diluted in 50 mM Tris pH 7.5, 0.1 mM EGTA, 0.1% b-mercaptoethanol, 1 mg/ml BSA) was assayed against a substrate peptide ([…]) (SEQ ID NO: 30) in a final volume of 25.5 μl containing 50 mM Tris pH 7.5, 0.05% b-mercaptoethanol, 300 μM substrate peptide, 10 mM magnesium acetate and 0.005 mM [33P-g-ATP] (50-1000 cpm/pmole) and incubated for 30 min at room temperature. Assays were stopped by addition of 5 μl of 0.5 M (3%) orthophosphoric acid and then harvested onto P81 Unifilter plates with a wash buffer of 50 mM orthophosphoric acid.

IR-HIS = biological target: T2, IR-HIS (Homo sapiens, UniProt P06213); experiment: Kinase screen: IR-HIS assay; conditions: 10 micromolar compound; for remaining activity at 10 µM: read-out: mean activity remaining (as a percentage of the original activity), IR-HIS
T2 construct: His
T2 sequence (P06213 28-1382): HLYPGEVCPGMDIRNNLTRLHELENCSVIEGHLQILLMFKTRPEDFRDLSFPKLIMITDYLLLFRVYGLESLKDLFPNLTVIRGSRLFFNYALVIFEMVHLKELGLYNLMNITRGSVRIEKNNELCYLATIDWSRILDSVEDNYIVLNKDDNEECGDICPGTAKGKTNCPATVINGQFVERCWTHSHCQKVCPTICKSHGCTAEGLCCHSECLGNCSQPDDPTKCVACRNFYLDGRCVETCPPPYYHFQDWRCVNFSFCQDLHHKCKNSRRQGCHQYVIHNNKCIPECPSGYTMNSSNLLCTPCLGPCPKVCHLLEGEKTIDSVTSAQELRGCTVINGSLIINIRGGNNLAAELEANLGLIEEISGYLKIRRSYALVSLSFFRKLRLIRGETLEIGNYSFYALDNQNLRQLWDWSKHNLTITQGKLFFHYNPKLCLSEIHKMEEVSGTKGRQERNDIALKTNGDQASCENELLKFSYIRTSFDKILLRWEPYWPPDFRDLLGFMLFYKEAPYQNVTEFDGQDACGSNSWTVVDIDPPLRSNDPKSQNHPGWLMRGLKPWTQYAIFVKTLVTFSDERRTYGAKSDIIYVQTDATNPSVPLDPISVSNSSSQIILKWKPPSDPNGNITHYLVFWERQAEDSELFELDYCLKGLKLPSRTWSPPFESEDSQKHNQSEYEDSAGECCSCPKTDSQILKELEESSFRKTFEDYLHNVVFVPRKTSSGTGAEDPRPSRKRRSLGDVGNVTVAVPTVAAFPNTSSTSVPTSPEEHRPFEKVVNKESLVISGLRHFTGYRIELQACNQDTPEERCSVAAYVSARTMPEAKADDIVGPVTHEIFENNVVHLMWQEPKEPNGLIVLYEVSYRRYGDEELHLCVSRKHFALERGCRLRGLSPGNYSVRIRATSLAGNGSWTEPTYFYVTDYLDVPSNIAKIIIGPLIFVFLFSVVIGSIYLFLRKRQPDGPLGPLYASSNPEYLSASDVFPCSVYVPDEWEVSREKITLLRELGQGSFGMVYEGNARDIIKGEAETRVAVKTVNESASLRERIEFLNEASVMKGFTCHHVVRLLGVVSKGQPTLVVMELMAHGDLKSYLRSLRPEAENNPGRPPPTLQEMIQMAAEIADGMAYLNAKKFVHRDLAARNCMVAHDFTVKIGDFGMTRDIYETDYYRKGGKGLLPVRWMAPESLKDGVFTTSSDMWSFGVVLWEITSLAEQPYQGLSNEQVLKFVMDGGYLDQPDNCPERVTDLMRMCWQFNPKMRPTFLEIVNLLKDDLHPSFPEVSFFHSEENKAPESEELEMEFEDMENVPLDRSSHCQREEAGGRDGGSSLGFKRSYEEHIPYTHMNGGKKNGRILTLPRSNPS
Description: as §1, §2
as §3, with “IR-HIS” for “PAK4”, “EGTA,” for “EGTA, 0.1% b-mercaptoethanol,”, “36)” for “30)”, “7.5,” for “7.5, 0.05% b-mercaptoethanol,”, “0.02” for “0.005”

[1] = 10 micromolar compound, read-out: mean activity remaining (as a percentage of the original activity), MSK1
[2] = 10 micromolar compound, read-out: mean activity remaining (as a percentage of the original activity), CAMK 1
[3] = 10 micromolar compound, read-out: mean activity remaining (as a percentage of the original activity), SmMLCK
[4] = 10 micromolar compound, read-out: mean activity remaining (as a percentage of the original activity), CHK 1
[5] = 10 micromolar compound, read-out: mean activity remaining (as a percentage of the original activity), PAK4

Chain of MSK1 (O75582 whole entry, species assumed): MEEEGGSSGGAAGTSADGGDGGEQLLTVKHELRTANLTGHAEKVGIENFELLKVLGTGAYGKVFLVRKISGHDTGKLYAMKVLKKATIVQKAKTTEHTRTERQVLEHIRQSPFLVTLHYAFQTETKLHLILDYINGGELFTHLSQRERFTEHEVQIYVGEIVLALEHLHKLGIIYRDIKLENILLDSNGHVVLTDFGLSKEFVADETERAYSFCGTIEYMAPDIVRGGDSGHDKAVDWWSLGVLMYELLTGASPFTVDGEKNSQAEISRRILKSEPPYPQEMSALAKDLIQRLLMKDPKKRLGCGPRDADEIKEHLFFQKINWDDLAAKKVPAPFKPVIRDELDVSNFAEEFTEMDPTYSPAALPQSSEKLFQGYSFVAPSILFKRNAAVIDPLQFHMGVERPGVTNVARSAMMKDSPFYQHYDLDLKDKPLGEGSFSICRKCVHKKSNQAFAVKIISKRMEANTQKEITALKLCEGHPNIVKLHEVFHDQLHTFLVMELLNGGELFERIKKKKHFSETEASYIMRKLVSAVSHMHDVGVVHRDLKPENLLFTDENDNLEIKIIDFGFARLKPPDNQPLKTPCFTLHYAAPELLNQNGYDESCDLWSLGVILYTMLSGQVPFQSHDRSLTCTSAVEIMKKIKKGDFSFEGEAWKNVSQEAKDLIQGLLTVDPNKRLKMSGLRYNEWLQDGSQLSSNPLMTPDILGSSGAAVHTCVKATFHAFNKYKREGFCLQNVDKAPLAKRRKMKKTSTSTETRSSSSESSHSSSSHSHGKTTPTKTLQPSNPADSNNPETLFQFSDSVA

## CC(C)c1cnn2c(NCc3ccccc3)cc(NCCCCCCCN)nc12 [BS-181]
MSK1; MSK1, 10 μM, read-out: Mean Remaining Enzyme Activity (%)
  remaining activity at 10 µM: 65%
CAMK1; CAMK1, 10 μM, read-out: Mean Remaining Enzyme Activity (%)
  remaining activity at 10 µM: 48%
SmMLCK; SmMLCK, 10 μM, read-out: Mean Remaining Enzyme Activity (%)
  remaining activity at 10 µM: 35%
CHK1; CHK1, 10 μM, read-out: Mean Remaining Enzyme Activity (%)
  remaining activity at 10 µM: 80%
PAK4; PAK4, 10 μM, read-out: Mean Remaining Enzyme Activity (%)
  remaining activity at 10 µM: 75%

## C=C[C@H](CO)Nc1cc(NCc2ccccc2)n2ncc(C(C)C)c2n1 [ICEC0065]
MSK1; [1]
  remaining activity at 10 µM: 88%
CAMK1; [2]
  remaining activity at 10 µM: 89%
SmMLCK; [3]
  remaining activity at 10 µM: 92%
CHK1; [4]
  remaining activity at 10 µM: 87%
PAK4; [5]
  remaining activity at 10 µM: 82%
IR-HIS
  remaining activity at 10 µM: 71%

## CC[C@H](CO)Nc1cc(NCc2ccccc2)n2ncc(C(C)C)c2n1 [ICEC0067]
MSK1; [1]
  remaining activity at 10 µM: 86%
CAMK1; [2]
  remaining activity at 10 µM: 84%
SmMLCK; [3]
  remaining activity at 10 µM: 81%
CHK1; [4]
  remaining activity at 10 µM: 100%
PAK4; [5]
  remaining activity at 10 µM: 75%
IR-HIS
  remaining activity at 10 µM: 78%

## CC(C)c1cnn2c(NCc3ccccc3)cc(N[C@@H](CO)[C@H](O)CO)nc12 [ICEC0318, (3S)-3-(7-(Benzylamino)-3-isopropylpyrazolo[1,5-a]pyrimidin-5-ylamino)butane-1,2,4-triol]
MSK1; [1]
  remaining activity at 10 µM: 96%
CAMK1; [2]
  remaining activity at 10 µM: 93%
SmMLCK; [3]
  remaining activity at 10 µM: 101%
CHK1; [4]
  remaining activity at 10 µM: 98%
PAK4; [5]
  remaining activity at 10 µM: 55%
IR-HIS
  remaining activity at 10 µM: 70%

## CC(C)c1cnn2c(NCc3ccccc3F)cc(NCCCCCN)nc12 [ICEC-0232]
MSK1; 10 micromolar compound
  mean activity remaining (as a percentage of the original activity), MSK1: 42%
CAMK1; 10 micromolar compound
  mean activity remaining (as a percentage of the original activity), CAMK 1: 29%
SmMLCK; 10 micromolar compound
  mean activity remaining (as a percentage of the original activity), SmMLCK: 38%
CHK1; 10 micromolar compound
  mean activity remaining (as a percentage of the original activity), CHK 1: 87%
PAK4; 10 micromolar compound
  mean activity remaining (as a percentage of the original activity), PAK4: 58%
IR-HIS
  mean activity remaining (as a percentage of the original activity), IR-HIS: 58%

— patent US8067424B2, “Selective inhibitors for cyclin-dependent kinases” (Emory University, priority 2007, dated 2011)
